We go through twelve molecules from PubChem BioAssay (NCI).

What all share (test): growth of human tumour cells (NCI), 48 h
Assay [1] deals with SK-MEL-2 melanoma.
Assay [2] concerns CAKI-1 renal.
For assay [3], the system named is COLO 205 colon.
For assay [4], the system named is 786-0 renal.
Assay [5] relates to SF-539 CNS.
Assay [6] concerns ACHN renal.
The test system of assay [7] is UO-31 renal.
The test system of assay [8] is MALME-3M melanoma.
Assay [9] concerns OVCAR-3 ovarian.
Assay [10] deals with M14 melanoma.

Structures are written as SMILES.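 Growth conditions: 96-well plates. Treatment: test compound, 48 hours, 5 concentrations. Analysis: linear interpolation between bracketing concentrations; unreached endpoints set to highest concentration. GI50 marks 50% less growth. TGI: total growth inhibition.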 Bounds are passed on as bounds.

As to `COc1ccc2c(c1)O/C(=C\c1cccc(OCC(=O)Nc3nc4c(s3)CCCC4)c1)C2=O`, the GI50 in [1] is 12.5 µM; in assay [2], 4.66 µM; in assay [3] it was greater than 100 µM; in [5], 16.7 µM; in [6], 4.43 µM; in assay [7] it was 1.69 µM. For the same molecule, the GI50 is 2.39 µM in [8], 2.98 µM in assay [9] and greater than 100 µM in assay [10]. The TGI was greater than 30.6 µM in [1]; greater than 100 µM in assay [2]; greater than 100 µM in assay [3]; greater than 19.9 µM in assay [4]; 44.1 µM in assay [5]; 33.6 µM in assay [6]. Besides, the TGI in assay [7] was 3.15 µM; in [8] it was 5.34 µM; in assay [9] it was 7.63 µM; in assay [10], greater than 100 µM.

Consider `CCC1=CCC23C(=O)C=CC(=O)C2(C1)C(=O)c1cccc(OC)c1C3=O` (centres undefined), for which the TGI was greater than 100 µM in assay [1]; 26.1 µM in [2]; 28.4 µM in assay [3]; 24.8 µM in assay [4]; 32.9 µM in assay [5]; 27.4 µM in assay [6]. The TGI in assay [7] turned out to be 22.7 µM; in assay [8], 30 µM; in [9], 27.2 µM; in [10], 30.4 µM.

Turning to `N#Cc1c(-c2ccccc2)/c(=C\Nc2ccc(Cl)cc2)c(=O)n2c1nc1ccccc12`, the TGI in [1] was greater than 100 µM; in assay [2], 94.4 µM; in assay [3], greater than 100 µM; in assay [4] it was greater than 100 µM; in assay [5] it was greater than 100 µM; in assay [6], greater than 100 µM. In addition, the TGI in [7], in assay [8], in assay [9] and in assay [10] was greater than 100 µM each time.

Consider `O=C1CCSSCCC(=O)NCCN1`, for which the TGI in assay [1], in assay [2], in assay [3], in [4], in assay [5] and in assay [6] was greater than 100 µM throughout. In addition, the TGI in assay [7], in assay [8], in [9] and in assay [10] was greater than 100 µM each time.

Regarding `CC(=O)NS(=O)(=O)c1ccc(NC(=O)c2c3ccccc3nc3ccccc23)cc1`, the TGI in assay [1], in [2], in [3], in assay [4], in assay [5] and in assay [6] was greater than 100 µM in each case. The TGI in assay [7], in [8], in [9] and in assay [10] was greater than 100 µM in each case.

With `C=C1[C@@H](O)C[C@@]23CC[C@@H]4[C@@]5(C)CC[C@@H](OC(C)=O)C(C)(C)[C@@H]5C[C@@H](OC5OC(COC(C)=O)C(O)C(O)C5O)[C@@]4(C)C2=CC[C@H]3[C@H]1C` (some centres undefined), the TGI in assay [1] worked out at 7.39 µM; in [2], 26.7 µM; in [3], 4.36 µM; in assay [4], 18.9 µM; in assay [5] it was 24.5 µM; in [6] it was 21.9 µM. In addition, the TGI was 28 µM in assay [7], 23.9 µM in assay [8], 16.2 µM in assay [9] and 16.4 µM in [10].

`CCSC1=CC(=O)c2nc3ccccc3c3ccnc1c23`: the TGI in assay [1] is 5.6 µM; in assay [2], 9.12 µM; in assay [3] it was greater than 32.8 µM; in assay [4], 11.4 µM; in assay [5], 13.2 µM; in assay [6] it was greater than 44.7 µM. The TGI is 19 µM in assay [7], 3.32 µM in assay [8], greater than 23.1 µM in assay [9] and 6.15 µM in [10].

As for `CC(C)=C[C@@H]1C[C@H](n2cc(C)c(=O)[nH]c2=O)ON1CCO`, the TGI in assay [1], in assay [2], in assay [3], in assay [4], in assay [5] and in assay [6] was greater than 100 µM each time. For the same molecule, the TGI in [7], in [8], in [9] and in [10] was greater than 100 µM throughout.

Regarding `Cc1ccccc1OC(C)C(=O)NN1C(=O)CC(=O)N(c2ccc(Cl)cc2)C1=S` (centres undefined), the TGI in assay [1] is greater than 100 µM; in assay [2], greater than 100 µM; in assay [3] it was 68.3 µM; in assay [4] it was greater than 100 µM; in assay [5], greater than 100 µM; in assay [6], greater than 100 µM. In addition, the TGI in assay [7], in [8], in assay [9] and in assay [10] was greater than 100 µM each time.

As to `COC(=O)NN(C(=O)OC)c1c(-c2ccccc2)nc(SC)n1N`, the TGI in assay [1], in assay [2], in assay [3], in assay [4], in [5] and in assay [6] was greater than 100 µM each time. For the same molecule, the TGI in assay [7], in assay [8], in assay [9] and in assay [10] was greater than 100 µM in each case.

In the case of `CSCCC(NCc1c(O)ccc2c(-c3ccccc3)cc(=O)oc12)C(=O)O` (centres undefined), the TGI in assay [1], in assay [2], in [3], in [4], in [5] and in [6] was greater than 100 µM each time. For the same molecule, the TGI in assay [7], in assay [8], in [9] and in assay [10] was greater than 100 µM throughout.

For the molecule `O=c1cc(/C=C/c2ccc(O)c(O)c2)oc(/C=C/c2ccc(O)c(O)c2)c1`, the TGI amounted to 9.97 µM in [1]; 11.4 µM in [2]; 21.6 µM in [3]; 17.7 µM in [4]; 6.73 µM in assay [5]; 16.1 µM in assay [6]. Moreover, the TGI in [7] is 15.8 µM; in assay [8], 19.1 µM; in [9] it was 10.8 µM; in [10] it was 16.5 µM.
